Source: the supplement of paper PMC10307832

Assays:
Assay in all cases: relative viability (nuclei count vs DMSO), 5 days (fraction); higher = more cells survive
Metformin + Olaparib = compound: CN(C)C(=N)NC(=N)N [Metformin] + O=C(c1cc(Cc2n[nH]c(=O)c3ccccc23)ccc1F)N1CCN(C(=O)C2CC2)CC1 [Olaparib] (partner 8 µM)
In short: (§1)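 Dosing by pin tool came one day after lung cancer cell lines were seeded in 1536-well plates, using either one drug or a fixed anchor-drug dose plus five library-drug doses (not always all listed) in √10 steps. After 5 days, nuclei were counted on 4× images. Relative viability is treated-well nuclei count divided by vehicle-well nuclei count, and values are medians of duplicate plates.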

Apatinib + OSI-027 = compound: N#CC1(c2ccc(NC(=O)c3cccnc3NCc3ccncc3)cc2)CCCC1 [Apatinib] + COc1cccc2cc(-c3nc([C@H]4CC[C@H](C(=O)O)CC4)n4ncnc(N)c34)[nH]c12 [OSI-027] (partner 0.5 µM)
In short: as §1

Apatinib + Trametinib = compound: N#CC1(c2ccc(NC(=O)c3cccnc3NCc3ccncc3)cc2)CCCC1 [Apatinib] + CC(=O)Nc1cccc(-n2c(=O)n(C3CC3)c(=O)c3c(Nc4ccc(I)cc4F)n(C)c(=O)c(C)c32)c1 [Trametinib] (partner 0.02 µM)
In short: as §1

Apatinib + Crizotinib = compound: N#CC1(c2ccc(NC(=O)c3cccnc3NCc3ccncc3)cc2)CCCC1 [Apatinib] + C[C@@H](Oc1cc(-c2cnn(C3CCNCC3)c2)cnc1N)c1c(Cl)ccc(F)c1Cl [Crizotinib] (partner 1 µM)
In short: as §1

Cell Line	relative viability (Metformin + Olaparib; first compound 10 µM)	relative viability (Metformin + Olaparib; first compound 31.62 µM)	relative viability (Metformin + Olaparib; first compound 316.23 µM)	relative viability (Metformin + Olaparib; first compound 1000 µM)	relative viability (Apatinib + OSI-027; first compound 0.08 µM)	relative viability (Apatinib + OSI-027; first compound 0.253 µM)	relative viability (Apatinib + OSI-027; first compound 0.8 µM)	relative viability (Apatinib + OSI-027; first compound 2.53 µM)	relative viability (Apatinib + OSI-027; first compound 8 µM)	relative viability (Apatinib + Trametinib; first compound 0.08 µM)	relative viability (Apatinib + Trametinib; first compound 0.253 µM)	relative viability (Apatinib + Trametinib; first compound 0.8 µM)	relative viability (Apatinib + Trametinib; first compound 2.53 µM)	relative viability (Apatinib + Trametinib; first compound 8 µM)	relative viability (Metformin + Olaparib; first compound 100 µM)	relative viability (Apatinib + Crizotinib; first compound 0.08 µM)	relative viability (Apatinib + Crizotinib; first compound 0.253 µM)	relative viability (Apatinib + Crizotinib; first compound 0.8 µM)	relative viability (Apatinib + Crizotinib; first compound 2.53 µM)	relative viability (Apatinib + Crizotinib; first compound 8 µM)
SW 900	0.853	0.945	0.892	0.917	0.563	0.605	0.497	0.545	0.412	0.757	0.801	0.772	0.623	0.642						
HCC-827	0.487	0.366	0.415	0.424	0.856	0.742	0.575	0.719	0.642	0.525	0.533	0.492	0.519	0.425	0.484	0.969	0.887	0.767	0.83	0.575
EMC-BAC-2	0.381	0.394	0.339	0.361	0.413	0.389	0.357	0.338	0.291		0.869	0.887	0.818	0.799	0.401	0.726	0.73	0.764	0.633	0.475
NCI-H322M	0.686	0.695	0.672	0.654	0.551	0.533	0.52	0.518	0.46	0.506	0.651	0.494	0.545	0.425	0.739	0.917	0.925	0.946	0.825	0.776
NCI-H650	0.315	0.296	0.316	0.368	0.493	0.491	0.446	0.381	0.388	0.98	0.918	1.02	0.963	1.02	0.396	0.664	0.843	0.676	0.562	0.43
NCI-H2126	0.767	0.88	0.833	0.856	0.816	0.641	0.666	0.585	0.664	0.605	0.562	0.569	0.538	0.415	0.911	1.03	0.945	1.07	0.957	0.894
NCI-H1395	0.386	0.428	0.42	0.417	0.614	0.701	0.662	0.693	0.639	1.03	1.05	0.915	0.965	0.965	0.455					
NCI-H1355	0.696	0.715	0.679	0.757	0.391	0.396	0.394	0.374	0.364	0.422	0.444	0.354	0.367	0.314	0.713	1.04	1.03	1.03	0.943	0.815
NCI-H1563					0.812	0.865	0.731	0.706	0.718							0.824	0.848	0.864	0.851	0.797
NCI-H1703	0.501	0.71	0.506	0.521											0.875	0.359	0.464	0.347	0.194	0.15
NCI-H1299	0.867	0.924	0.873	0.933											0.941	0.998	0.974	0.517	0.961	0.77
ABC-1		0.817	0.218	0.36		0.543	0.453	0.499	0.336						1.08		1.42	1.11	0.932	0.614
NCI-H522	0.721	0.752	0.652	0.698	0.731	0.752	0.703	0.72	0.691	0.799	0.77	0.731	0.592	0.68	0.745					
NCI-H1623					0.443	0.423	0.404	0.351	0.385											
NCI-H1793	0.702	1.1	0.781	0.901	0.282	0.25	0.268	0.222	0.175	0.432	0.449	0.443	0.34	0.301	0.813					
NCI-H2342		0.375	0.418	0.358	0.579	0.573	0.626	0.529	0.518	0.918	0.777	0.916	0.846	0.834	0.372					
A549	0.281	0.308	0.269	0.368											0.324	0.818	0.917	0.737	0.61	0.56
EBC-1	0.68	0.733	0.728	0.721											0.73	0.211	0.185	0.178	0.211	0.208
